From patent publication US20240270762A1, “PENICILLIN-BINDING PROTEIN INHIBITORS” (priority 2021, published 2024)
In brackets after ≈: the same amount, converted by molar mass. Read-outs that look alike come from different tables or passages of the source.

What was measured:
P. aeruginosa ATCC 27853 = assay: microbe, parasite or virus in culture; format: cell-based; settings: Pseudomonas aeruginosa, ATCC27853, read-out: Minimum inhibitory concentration, P. aeruginosa ATCC 27853
[1] = test system: B. humptydooensis ATCC BAA-2767; assay: microbe, parasite or virus in culture; format: cell-based; settings: Burkholderia humptydooensis, ATCCBAA2767, read-out: Minimum inhibitory concentration (MIC), B. humptydooensis ATCC BAA-2767
A. baumannii PBP2 = A. baumannii PBP2 (Acinetobacter baumannii, UniProt D0C8Z9); assay: Bocillin-FL competition binding via gel filtration, A. baumannii PBP2
Procedure, shortened: (§1)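 Competitive equilibrium binding; reporter Bocillin-FL. PBP + inhibitor (titration) pre-incubated → Bocillin-FL, 15 min → gel filtration → fluorescence. EC50 from Hill fit of fraction bound vs [inhibitor].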

P. aeruginosa CDC-0110 = assay: microbe, parasite or virus in culture; format: cell-based; settings: Pseudomonas aeruginosa, CDC0110, read-out: Minimum inhibitory concentration, P. aeruginosa CDC-0110
P. aeruginosa CDC-0095 = assay: microbe, parasite or virus in culture; format: cell-based; settings: Pseudomonas aeruginosa, CDC0095, read-out: Minimum inhibitory concentration, P. aeruginosa CDC-0095
A. baumannii PBP1a = biological target: T1, A. baumannii PBP1a (Acinetobacter baumannii, UniProt A0ABX6CK30); assay: Bocillin-FL competition binding via gel filtration, A. baumannii PBP1a
T1 sequence (A0ABX6CK30 1-851): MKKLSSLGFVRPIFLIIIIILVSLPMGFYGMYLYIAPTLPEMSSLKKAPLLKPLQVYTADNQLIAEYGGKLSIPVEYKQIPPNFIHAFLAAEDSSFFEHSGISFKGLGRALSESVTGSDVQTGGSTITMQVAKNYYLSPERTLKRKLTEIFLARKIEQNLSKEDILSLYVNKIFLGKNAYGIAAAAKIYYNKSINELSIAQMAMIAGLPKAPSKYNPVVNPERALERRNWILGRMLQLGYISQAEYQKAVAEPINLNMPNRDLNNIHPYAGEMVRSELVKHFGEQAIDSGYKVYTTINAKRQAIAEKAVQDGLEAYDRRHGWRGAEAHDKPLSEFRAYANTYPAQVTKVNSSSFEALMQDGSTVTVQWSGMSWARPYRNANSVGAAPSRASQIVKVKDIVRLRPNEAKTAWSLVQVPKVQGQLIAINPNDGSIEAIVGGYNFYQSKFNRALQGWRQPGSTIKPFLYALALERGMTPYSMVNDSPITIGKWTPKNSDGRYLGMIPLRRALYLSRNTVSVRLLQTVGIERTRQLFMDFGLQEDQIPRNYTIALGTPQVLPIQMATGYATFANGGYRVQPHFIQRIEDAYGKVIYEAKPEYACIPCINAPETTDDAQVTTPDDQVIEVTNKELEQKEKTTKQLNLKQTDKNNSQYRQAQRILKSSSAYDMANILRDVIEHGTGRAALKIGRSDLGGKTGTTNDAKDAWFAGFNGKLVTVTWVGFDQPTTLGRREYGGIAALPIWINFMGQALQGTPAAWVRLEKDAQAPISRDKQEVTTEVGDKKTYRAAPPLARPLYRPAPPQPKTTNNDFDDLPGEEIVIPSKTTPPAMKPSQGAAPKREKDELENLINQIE
Procedure, shortened: as §1

P. aeruginosa ATCC 35151 = assay: microbe, parasite or virus in culture; format: cell-based; settings: Pseudomonas aeruginosa, ATCC35151, read-out: Minimum inhibitory concentration, P. aeruginosa ATCC 35151
P. aeruginosa CDC-0090 = assay: microbe, parasite or virus in culture; format: cell-based; settings: Pseudomonas aeruginosa, CDC0090, read-out: Minimum inhibitory concentration, P. aeruginosa CDC-0090
[2] = test system: B. thailandensis ATCC 700388; assay: microbe, parasite or virus in culture; format: cell-based; settings: Burkholderia thailandensis, ATCC700388, read-out: Minimum inhibitory concentration (MIC), B. thailandensis ATCC 700388
[3] = test system: P. aeruginosa (ΔmexAB-oprM); assay: Broth microdilution MIC in iron-depleted CAMHB (IDM); format: cell-based; settings: Pseudomonas aeruginosa, read-out: Minimum inhibitory concentration, P. aeruginosa ΔmexAB-oprM
P. aeruginosa CDC-0054 = assay: microbe, parasite or virus in culture; format: cell-based; settings: Pseudomonas aeruginosa, CDC0054, read-out: Minimum inhibitory concentration, P. aeruginosa CDC-0054
B. pseudomallei Bp82 = assay: microbe, parasite or virus in culture; format: cell-based; settings: Burkholderia pseudomallei, BP82, read-out: Minimum inhibitory concentration, B. pseudomallei Bp82
A. baumannii CDC-0036 = assay: microbe, parasite or virus in culture; format: cell-based; settings: Acinetobacter baumannii, CDC0036, read-out: Minimum inhibitory concentration (MIC), A. baumannii CDC-0036
A. baumannii ATCC 19606 = assay: microbe, parasite or virus in culture; format: cell-based; settings: Acinetobacter baumannii, ATCC19606, read-out: Minimum inhibitory concentration (MIC), A. baumannii ATCC 19606
A. baumannii 1258916 = assay: microbe, parasite or virus in culture; format: cell-based, Acinetobacter baumannii; settings: Acinetobacter baumannii, 1258916, read-out: Minimum inhibitory concentration (MIC), A. baumannii 1258916
A. baumannii CDC-0045 = assay: microbe, parasite or virus in culture; format: cell-based; settings: Acinetobacter baumannii, CDC0045, read-out: Minimum inhibitory concentration (MIC), A. baumannii CDC-0045
A. baumannii ATCC 17978 = assay: microbe, parasite or virus in culture; format: cell-based; settings: Acinetobacter baumannii, ATCC17978, read-out: Minimum inhibitory concentration (MIC), A. baumannii ATCC 17978
[4] = biological target: T2, PBP3 from Pseudomonas aeruginosa (PAO1) (Pseudomonas aeruginosa, UniProt G3XD46); assay: Bocillin-FL fluorescence polarization competition binding, P. aeruginosa PBP3; settings: Binding affinity to P. aeruginosa PBP3; fluorescence polarization competition binding assay using Bocillin-FL; read-out: P. aeruginosa PBP3 Potency
T2 construct: made in house
Procedure, shortened: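 Purified PBP was preincubated with inhibitor (E. coli PBP3 1.5 μM, 30 min; P. aeruginosa PBP3 0.75 μM, A. baumannii PBP3 0.2 μM and PBP1a 1 μM, 15 min), then Bocillin-FL (0.1 μM; 0.05 μM for PBP1a) added and FP read up to 60 min. EC50 = 50% loss of bound probe.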

A. baumannii CDC-0033 = assay: microbe, parasite or virus in culture; format: cell-based; settings: Acinetobacter baumannii, CDC0033, read-out: Minimum inhibitory concentration (MIC), A. baumannii CDC-0033
[5] = competition binding assay using Bocillin-FL via gel filtration, read-out: A. baumannii PBP1a Potency

Sequence of A. baumannii PBP2 (D0C8Z9 whole entry): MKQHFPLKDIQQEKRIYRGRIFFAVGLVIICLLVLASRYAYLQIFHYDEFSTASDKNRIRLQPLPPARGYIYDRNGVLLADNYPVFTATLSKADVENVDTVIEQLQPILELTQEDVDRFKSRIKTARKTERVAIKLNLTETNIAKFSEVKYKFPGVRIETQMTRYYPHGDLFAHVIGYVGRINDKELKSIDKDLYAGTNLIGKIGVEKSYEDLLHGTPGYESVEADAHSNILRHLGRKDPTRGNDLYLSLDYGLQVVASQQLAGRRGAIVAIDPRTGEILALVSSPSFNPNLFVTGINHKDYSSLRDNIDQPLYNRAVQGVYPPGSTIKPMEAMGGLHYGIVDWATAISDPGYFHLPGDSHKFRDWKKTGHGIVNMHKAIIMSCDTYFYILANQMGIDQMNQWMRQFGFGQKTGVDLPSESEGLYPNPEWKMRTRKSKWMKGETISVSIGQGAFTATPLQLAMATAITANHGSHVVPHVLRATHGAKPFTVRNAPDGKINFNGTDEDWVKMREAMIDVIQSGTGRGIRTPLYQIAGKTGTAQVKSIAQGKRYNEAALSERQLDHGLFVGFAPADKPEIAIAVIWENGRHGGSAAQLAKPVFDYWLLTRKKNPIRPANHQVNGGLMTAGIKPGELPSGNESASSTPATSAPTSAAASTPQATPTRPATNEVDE
T2 sequence (G3XD46 whole entry): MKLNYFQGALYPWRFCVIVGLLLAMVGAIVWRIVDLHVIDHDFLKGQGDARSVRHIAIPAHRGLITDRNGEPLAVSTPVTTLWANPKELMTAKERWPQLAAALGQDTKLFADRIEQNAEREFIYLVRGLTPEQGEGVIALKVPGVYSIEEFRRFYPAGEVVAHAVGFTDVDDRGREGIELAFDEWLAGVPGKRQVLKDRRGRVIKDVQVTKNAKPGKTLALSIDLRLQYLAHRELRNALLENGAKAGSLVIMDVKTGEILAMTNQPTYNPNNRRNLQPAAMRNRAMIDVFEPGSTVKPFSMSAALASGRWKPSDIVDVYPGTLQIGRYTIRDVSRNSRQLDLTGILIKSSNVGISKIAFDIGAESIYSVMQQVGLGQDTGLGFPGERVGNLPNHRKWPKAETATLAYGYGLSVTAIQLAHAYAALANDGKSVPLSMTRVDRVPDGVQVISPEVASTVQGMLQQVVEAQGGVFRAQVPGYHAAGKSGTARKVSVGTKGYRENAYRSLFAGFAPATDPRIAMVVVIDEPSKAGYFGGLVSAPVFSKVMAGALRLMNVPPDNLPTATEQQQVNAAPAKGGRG

Row | SMILES | MIC (P. aeruginosa ATCC 27853) [µg/mL] | MIC [1] [µg/mL] | EC50 (A. baumannii PBP2) [µM] | MIC (P. aeruginosa CDC-0110) [µg/mL] | MIC (P. aeruginosa CDC-0095) [µg/mL] | EC50 (A. baumannii PBP1a; [5]) [µM] | MIC (P. aeruginosa ATCC 35151) [µg/mL] | MIC (P. aeruginosa CDC-0090) [µg/mL] | MIC [2] [µg/mL] | MIC (P. aeruginosa CDC-0054) [µg/mL] | MIC ([3]; iron-depleted CAMHB (IDM), […]) [µg/mL] | MIC (B. pseudomallei Bp82) [µg/mL] | also measured
1 | O=C(O)c1c(F)ccc2c1OB(O)[C@@H](NC(=O)[C@@H](NC(=O)N1CCN(C3CCN(S(=O)(=O)c4ccc5[nH]nnc5c4)CC3)C1=O)c1cc(F)c(O)c(O)c1Cl)C2 (single isomer, unassigned) [Example 620] | 2 to 4 (≈ 2.44 to 4.88 µM) | > 128 | < 10 | > 128 | > 128 | < 10 | < 1 | 2 to 4 (≈ 2.44 to 4.88 µM) | > 128 | 2 to 4 (≈ 2.44 to 4.88 µM) |  |  | MIC [3]: < 1 µg/mL
2 | O=C(O)c1c(F)ccc2c1OB(O)[C@@H](NC(=O)[C@H](NC(=O)N1CCN(C3CCN(S(=O)(=O)c4ccc5[nH]nnc5c4)CC3)C1=O)c1cc(F)c(O)c(O)c1F)C2 [Example 622, (R)-3-((R)-2-(3-(1-((1H-benzo[d][1,2,3]triazol-5-yl)sulfonyl)piperidin-4-yl)-2-oxoimidazolidine-1-carboxamido)-2-(2,5-difluoro-3,4-dihydroxyphenyl)acetamido)-7-fluoro-2-hydroxy-3,4-dihydro-2H-benzo[e][1,2]oxaborinine-8-carboxylic acid] | 2 to 4 (≈ 2.49 to 4.98 µM) |  |  | < 1 | 2 to 4 (≈ 2.49 to 4.98 µM) |  | < 1 | < 1 | 2 to 4 (≈ 2.49 to 4.98 µM) | < 1 | < 1 |  | 
3 | O=C(O)c1c(F)ccc2c1OB(O)[C@@H](NC(=O)C(NC(=O)N1CCN(C3CCN(Cc4cccc(O)c4)CC3)C1=O)c1cc(F)c(O)c(O)c1Cl)C2 (stereo partly drawn) [Example 605, (3R)-3-(2-(2-chloro-5-fluoro-3,4-dihydroxyphenyl)-2-(3-(1-(3-hydroxybenzyl)piperidin-4-yl)-2-oxoimidazolidine-1-carboxamido)acetamido)-7-fluoro-2-hydroxy-3,4-dihydro-2H-benzo[e][1,2]oxaborinine-8-carboxylic acid] |  | < 1 | 10 to 50 |  |  |  |  |  | < 1 |  |  | < 1 | EC50 (A. baumannii PBP1a): < 10 µM
4 | O=C(O)c1c(F)ccc2c1OB(O)[C@@H](NC(=O)[C@H](NC(=O)N1CCN(C3CCN(C(=O)c4cc(O)cc(O)c4)CC3)C1=O)c1cc(F)c(O)c(O)c1F)C2 [Example 623, (R)-3-((R)-2-(2,5-difluoro-3,4-dihydroxyphenyl)-2-(3-(1-(3,5-dihydroxybenzoyl)piperidin-4-yl)-2-oxoimidazolidine-1-carboxamido)acetamido)-7-fluoro-2-hydroxy-3,4-dihydro-2H-benzo[e][1,2]oxaborinine-8-carboxylic acid] | < 1 |  |  | < 1 | < 1 |  | < 1 | < 1 | < 1 | < 1 | < 1 |  | 
5 | O=C(O)c1c(F)ccc2c1OB(O)[C@@H](NC(=O)[C@H](NC(=O)N1CCN(C3CCN(C(=O)Nc4cc(O)c(O)c(Cl)c4)CC3)C1=O)c1ccc(P(=O)(O)O)cc1)C2 (single isomer, unassigned) [Example 501] |  | < 1 | < 10 |  |  | < 10 |  |  | < 1 |  |  | 2 to 4 (≈ 2.44 to 4.88 µM) | MIC (A. baumannii CDC-0036): 2 to 4 µg/mL (≈ 2.44 to 4.88 µM); MIC (A. baumannii ATCC 19606): < 1 µg/mL; MIC (A. baumannii 1258916): 2 to 4 µg/mL (≈ 2.44 to 4.88 µM); MIC (A. baumannii CDC-0045): < 1 µg/mL; MIC (A. baumannii ATCC 17978): < 1 µg/mL; IC50 [4]: < 10 µM; MIC (A. baumannii CDC-0033): 2 to 4 µg/mL (≈ 2.44 to 4.88 µM)
6 | O=C(O)c1c(F)ccc2c1OB(O)[C@@H](NC(=O)C(NC(=O)N1CCN(C3CCN(Cc4ccc(O)cc4)CC3)C1=O)c1cc(F)c(O)c(O)c1Cl)C2 (single isomer, unassigned) [Example 609] |  | < 1 | 10 to 50 |  |  | < 10 |  |  | < 1 |  |  | < 1 | 
